The source of these data is patent publication US11021446B2 (NOVARTIS AG, priority 2013, dated 2021).

This assay addresses T1, human Farnesoid X Receptor (FXR) ligand binding domain (GST-FXR LBD) (Homo sapiens, UniProt Q96RI1).
T1 construct: purchased Invitrogen
T1 sequence (Q96RI1 193-472 isoform Q96RI1-2): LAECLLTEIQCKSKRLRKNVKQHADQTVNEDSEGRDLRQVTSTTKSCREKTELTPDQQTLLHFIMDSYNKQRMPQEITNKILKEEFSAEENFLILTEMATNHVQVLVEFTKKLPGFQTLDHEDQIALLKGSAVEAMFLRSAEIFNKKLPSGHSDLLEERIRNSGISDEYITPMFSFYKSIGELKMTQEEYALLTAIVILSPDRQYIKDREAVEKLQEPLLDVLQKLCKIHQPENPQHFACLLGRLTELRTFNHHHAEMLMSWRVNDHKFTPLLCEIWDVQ
Description: Human GST-FXR LBD co-activator interaction assay (FXR HTRF assay). Format: biochemical. As to conditions: GST-FXR LBD interaction with biotin-labeled SRC-1 peptide, FRET, response relative to GW4064, read-out: FXR coactivator interaction assay (HTRF). The text has this:
Human GST-FXR LBD Co-Activator Interaction Assay
The FXR HTRF assay is a biochemical assay measuring the interaction between FXR and a coactivator protein (SRC1). The ligand-induced interaction with a coactivator protein is a critical step in transcriptional activation by FXR. Thus, this is an assay designed to measure FXR agonist activity of the test compounds.
Recombinant human Farnesoid X Receptor (FXR) ligand binding domain (amino acids 193-472) fused to glutathione S-transferase (GST) purified protein (GST-FXR LBD) was purchased (Invitrogen). The ligand-dependent interaction between GST-FXR LBD and a peptide derived from Steroid Receptor Coactivator-1 (SRC-1) was monitored by Fluorescence Resonance Energy Transfer (FRET). […] Test compounds (in DMSO solution) and detection reagents (anti-GST-Cryptate labeled antibody and Streptavidin-XL665 conjugate; CisBio) were added in assay buffer containing 50 mM KF. Plates are incubated at room temperature in the dark for 2.5 hrs before reading on an Envision (PerkinElmer) at 665 nm and 590 nm. The HTRF assay results were calculated from the 665 nm/590 nm ratio (ratio=(A665 nm/A590 nm)×10^4) and expressed in Delta F %=(Ratiosample−Rationegative)/Rationegative×100.
A negative control (without Streptavidin-XL665) was run with each assay and represented the background fluorescence. A reference FXR agonist, (E)-3-(2-chloro-4-((3-(2,6-dichlorophenyl)-5-isopropylisoxazol-4-yl)methoxy)styryl)benzoic acid (Compound GW4064), was included in each experiment as positive control. The efficacy of each test compound was compared to that of GW4064. At each concentration, the relative activity of the test compound was expressed as Response %=(Rsample−RDMSO)/(Rpositive−RDMSO), where Rsample is the HTRF response (expressed in Delta F %) for the test compound, Rpositive is the maximal response for GW4064 at saturating concentrations, and RDMSO is the response for DMSO control. The EC50 values were calculated using GraphPad Prism (GraphPad Software) using non-linear regression curve fit (log(agonist) vs. response-variable slope (four parameters)).
For orientation: Time-resolved FRET reads energy transfer from a long-lived donor to a nearby acceptor.
On to `Cn1nc(C(=O)N(CC(=O)NCC(C)(C)C(=O)O)Cc2ccccc2F)c2c1-c1cc(Cl)ccc1OC2` [Compound 41, 3-(2-(8-chloro-N-(2-fluorobenzyl)-1-methyl-1,4-dihydrochromeno[4,3-c]pyrazole-3-carboxamido)acetamido)-2,2-dimethylpropanoic acid], for which the EC50 was 4 nM.
The result for `Cn1nc(C(=O)N(CC(=O)NCC2(C(=O)O)CC2)Cc2ccccc2F)c2c1-c1cc(Cl)ccc1OC2` [Compound 42, 1-((2-(8-chloro-N-(2-fluorobenzyl)-1-methyl-1,4-dihydrochromeno[4,3-c]pyrazole-3-carboxamido)acetamido)methyl) cyclopropanecarboxylic acid] reads 2.5 nM.
The value for `Cn1nc(C(=O)N(CCOc2ccc(C(=O)O)cc2F)Cc2ccccc2F)c2c1-c1cc(Cl)ccc1OC2` [Compound 43, 4-(2-(8-chloro-N-(2-fluorobenzyl)-1-methyl-1,4-dihydrochromeno[4,3-c]pyrazole-3-carboxamido)ethoxy)-3-fluorobenzoic Acid] was 18 nM; that for `Cn1nc(C(=O)N(CCOc2cccc(C(=O)O)c2)Cc2ccccc2F)c2c1-c1cc(Cl)ccc1OC2` [Compound 44, 3-(2-(8-chloro-N-(2-fluorobenzyl)-1-methyl-1,4-dihydrochromeno[4,3-c]pyrazole-3-carboxamido)ethoxy)benzoic acid] was 11 nM; that for `Cn1nc(C(=O)N(CCOc2ccc(C(=O)O)cc2)Cc2ccccc2F)c2c1-c1cc(Cl)ccc1OC2` [Compound 45, 4-(2-(8-chloro-N-(2-fluorobenzyl)-1-methyl-1,4-dihydrochromeno[4,3-c]pyrazole-3-carboxamido)ethoxy)benzoic acid] was 15 nM.
In the case of `Cc1cc(C(=O)O)ccc1OCCN(Cc1ccccc1F)C(=O)c1nn(C)c2c1COc1ccc(Cl)cc1-2` [Compound 46], the EC50 was determined as 3.2 nM.
On to `Cc1cc(C(=O)O)cc(C)c1OCCN(Cc1ccccc1F)C(=O)c1nn(C)c2c1COc1ccc(Cl)cc1-2` [Compound 47, 4-(2-(8-chloro-N-(2-fluorobenzyl)-1-methyl-1,4-dihydrochromeno[4,3-c]pyrazole-3-carboxamido)ethoxy)-3,5-dimethylbenzoic acid], for which the EC50 was 0.53 nM.
Turning to `Cn1nc(C(=O)N(CCOc2cc(C(=O)O)ccc2F)Cc2ccccc2F)c2c1-c1cc(Cl)ccc1OC2` [Compound 48, 3-(2-(8-chloro-N-(2-fluorobenzyl)-1-methyl-1,4-dihydrochromeno[4,3-c]pyrazole-3-carboxamido)ethoxy)-4-fluorobenzoic acid], the EC50 was determined as 61 nM.
The value for `Cc1cc(C(=O)O)cc(C)c1OCCN(CC1CCCC1)C(=O)c1nn(C)c2c1COc1ccc(Cl)cc1-2` [Compound 49, 4-(2-(8-chloro-N-(cyclopentylmethyl)-1-methyl-1,4-dihydrochromeno[4,3-c]pyrazole-3-carboxamido)ethoxy)-3,5-dimethylbenzoic acid] was 17 nM; that for `Cn1nc(C(=O)N(CCOc2c(F)cc(C(=O)O)cc2F)Cc2ccccc2F)c2c1-c1cc(Cl)ccc1OC2` [Compound 50, 4-(2-(8-chloro-N-(2-fluorobenzyl)-1-methyl-1,4-dihydrochromeno[4,3-c]pyrazole-3-carboxamido)ethoxy)-3,5-difluorobenzoic acid] was 11 nM.
The value for `Cn1nc(C(=O)N(CCOc2ccc(C(=O)O)cc2C(F)(F)F)Cc2ccccc2F)c2c1-c1cc(Cl)ccc1OC2` [Compound 51, 4-(2-(8-chloro-N-(2-fluorobenzyl)-1-methyl-1,4-dihydrochromeno[4,3-c]pyrazole-3-carboxamido)ethoxy)-3-(trifluoromethyl)benzoic acid] was 9.8 nM.
The value for `Cn1nc(C(=O)N(CCOc2c(F)cc(C(=O)O)cc2F)Cc2ccccc2)c2c1-c1cc(Cl)ccc1OC2` [Compound 52, 4-(2-(N-benzyl-8-chloro-1-methyl-1,4-dihydrochromeno[4,3-c]pyrazole-3-carboxamido)ethoxy)-3,5-difluorobenzoic acid] was 2.6 nM; that for `Cn1nc(C(=O)N(CCOc2c(F)cc(C(=O)O)cc2F)Cc2ccccc2F)c2c1-c1cc(F)ccc1OC2` [Compound 53, 3,5-difluoro-4-(2-(8-fluoro-N-(2-fluorobenzyl)-1-methyl-1,4-dihydrochromeno[4,3-c]pyrazole-3-carboxamido)ethoxy)benzoic acid] was 17 nM.
For `Cn1nc(C(=O)N(CCOc2c(F)cc(C(=O)O)cc2F)Cc2ccccc2)c2c1-c1cc(F)ccc1OC2` [Compound 54, 4-(2-(N-benzyl-8-fluoro-1-methyl-1,4-dihydrochromeno[4,3-c]pyrazole-3-carboxamido)ethoxy)-3,5-difluorobenzoic acid], the EC50 was determined as 21 nM.
The value for `Cn1nc(C(=O)N(CCOc2ccc(C(=O)O)cc2F)Cc2ccccc2)c2c1-c1cc(Cl)ccc1OC2` [Compound 55, 4-(2-(N-benzyl-8-chloro-1-methyl-1,4-dihydrochromeno[4,3-c]pyrazole-3-carboxamido)ethoxy)-3-fluorobenzoic Acid] was 13 nM; that for `Cn1nc(C(=O)N(CCOc2ccc(C(=O)O)cc2F)Cc2ccccc2)c2c1-c1cc(F)ccc1OC2` [Compound 56, 4-(2-(N-benzyl-8-fluoro-1-methyl-1,4-dihydrochromeno[4,3-c]pyrazole-3-carboxamido)ethoxy)-3-fluorobenzoic acid] was 40 nM.
With `Cn1nc(C(=O)N(CCOc2ccc(C(=O)O)cc2F)Cc2ccccc2)c2c1-c1cc(F)c(F)cc1OC2` [Compound 57, 4-(2-(N-benzyl-7,8-difluoro-1-methyl-1,4-dihydrochromeno[4,3-c]pyrazole-3-carboxamido)ethoxy)-3-fluorobenzoic acid], the EC50 was determined as 30 nM.
The value for `Cn1nc(C(=O)N(CCOc2ccc(C(=O)O)cc2F)Cc2cccc(F)c2)c2c1-c1cc(F)ccc1OC2` [Compound 58, 3-fluoro-4-(2-(8-fluoro-N-(3-fluorobenzyl)-1-methyl-1,4-dihydrochromeno[4,3-c]pyrazole-3-carboxamido)ethoxy)benzoic acid] was 22 nM; that for `Cn1nc(C(=O)N(CCOc2ccc(C(=O)O)cc2F)Cc2cccc(F)c2)c2c1-c1cc(F)c(F)cc1OC2` [Compound 59, 4-(2-(7,8-difluoro-N-(3-fluorobenzyl)-1-methyl-1,4-dihydrochromeno[4,3-c]pyrazole-3-carboxamido)ethoxy)-3-fluorobenzoic acid] was 28 nM; that for `Cn1nc(C(=O)N(CCOc2ccc(C(=O)O)cc2F)Cc2ccccc2F)c2c1-c1cc(F)ccc1OC2` [Compound 61, 3-fluoro-4-(2-(8-fluoro-N-(2-fluorobenzyl)-1-methyl-1,4-dihydrochromeno[4,3-c]pyrazole-3-carboxamido)ethoxy)benzoic Acid] was 89 nM.
The result for `Cn1nc(C(=O)N(CCOc2ccc(C(=O)O)cc2F)Cc2ccccc2F)c2c1-c1cc(F)c(F)cc1OC2` [Compound 62, 4-(2-(7,8-difluoro-N-(2-fluorobenzyl)-1-methyl-1,4-dihydrochromeno[4,3-c]pyrazole-3-carboxamido)ethoxy)-3-fluorobenzoic acid] reads 74 nM; that for `Cn1nc(C(=O)N(CCNc2cccc(C(=O)O)c2)Cc2ccccc2F)c2c1-c1cc(Cl)ccc1OC2` [Compound 63, 3-((2-(8-chloro-N-(2-fluorobenzyl)-1-methyl-1,4-dihydrochromeno[4,3-c]pyrazole-3-carboxamido)ethyl)amino)benzoic Acid], 6 nM.
